# Measured values taken from patent US20180217163A1, “TREATMENT OF NEURODEGENERATIVE CONDITIONS USING PKC ACTIVATORS AFTER DETERMINING THE PRESENCE OF THE APOE4 ALLELE” (priority 2015, published 2018).
# Key:
# Format in all cases: cell-based, human
# [1] = system: HDAC6-BDNF PIII association; experiment: ChIP: HDAC6 association with BDNF promoter III
# Method: (§1) Human SH-SY5Y neuroblastoma cells (Sigma-Aldrich), were cultured in 45% F12K, 45% MEM, and 10% FBS. Cells were treated with cholesterol, ASPD, ApoE3/ApoE4+cholesterol, or PKC activators for 24 h. Cholesterol was dissolved in ethanol. ApoE (20 nM) and cholesterol (100 μM) were mixed separately into the cultures. To block the ApoE receptors, cells were treated with RAP for 30 min before adding ApoE. Human primary neurons (ScienCell Research Laboratories) were plated on poly-L-lysine-coated plates and were maintained in neuronal medium (ScienCell Research Laboratories) supplemented with the neuronal growth supplements (ScienCell Research Laboratories). Half of the culture medium was changed every 3 d and fresh activators were added with every medium change to maintain viable neurons.
# (§2) BDNF promoter- and exon specific primers were used as described previously (Pruunsild et al., Dissecting the human BDNF locus: bidirectional transcription, complex splicing, and multiple promoters, Genomics, 90:397-406, 2007). […]
# (§3) ChIP was conducted using the SimpleChlP Enzymatic Chromatin IP kit (Cell Signaling Technology) following the manufacturer's protocol. […] The cumulative fluorescence for each amplicon was normalized to input DNA. […]
# [2] = system: PKCε mRNA; experiment: PKCε mRNA expression in SH-SY5Y cells (qRT-PCR); conditions: ASPD+ApoE4 treated cells plus PKC activator
# Method: as §1
# qRT-PCR was performed and the results analyzed as described previously (Schmittgen et al., Analyzing real-time PCR data by the comparative C(T) method, Nat. Protoc., 3:1101-1108, 2008; Sen et al., 2012 supra). Total RNA (500 ng) was reverse transcribed using oligo(dT) and Superscript III (Invitrogen) at 50° C. for 1 h. The cDNA products were analyzed using a LightCycler 480 II (Roche) PCR machine and LightCycler 480 SYBR Green 1 master mix following the manufacturer's protocol. […]
# [3] = system: HDAC6; experiment: HDAC6 nuclear translocation in SH-SY5Y cells (immunoblot); conditions: ApoE4+ASPD induced translocation, 24 h
# Method: as §1
# A PBS solution of 5×10^6 Human SH-SY5Y neuroblastoma cells was centrifuged and the resultant cell pellet was resuspended and washed twice with cold PBS. After the second wash, the cell pellet was resuspended in 500 μl of hypotonic buffer (20 mM Tris-Cl, pH 7.4, 10 mM NaCl, 3 mM MgCl2, and 1 mM PMSF) and incubated on ice for 15 min. Next, 25 μl of 10% NP-40 was added to the cell suspension and the sample was vortexed for 10 s. The homogenate was centrifuged for 10 min at 1000×g at 4° C. to obtain the cytoplasmic fraction (supernatant) and nuclear fraction (pellet). After removing the supernetant, the nuclear pellet was resuspended in 50 μl of complete cell extraction buffer (100 mM Tris-Cl, pH 7.4, 2 mM Na3VO4, 100 mM NaCl, 1% Triton X-100, 1 mM EDTA, 10% glycerol, 1 mM EGTA, 0.1% SDS, 1 mM NaF, 0.5% deoxycholate, 20 mM Na4P2O7, and 1 mM PMSF) and incubated on ice for 30 min with vortexing at 10 min intervals. The nuclear lysate was centrifuged at 14,000×g for 30 min at 4° C. to obtain the nuclear fraction (supernatant). Protein concentration was measured using the Coomassie Plus (Bradford) Protein Assay kit (Pierce).
# Protein in samples of the supernetant and nuclear fractions was separated by SDSPAGE in a 4-20% gradient Tris-Glycine gel (Invitrogen). The protein was then transferred to nitrocellulose membrane. The membrane was blocked with BSA at room temperature for 15 min and incubated with primary antibody overnight at 4° C. After incubation, the membrane was washed thrice (3×) with TBS-T (Tris-buffered saline-Tween 20) and further incubated with alkaline-phosphatase-conjugated secondary antibody (Jackson Immunoresearch Laboratories) at 1:10,000 dilution for 45 min. Following incubation, the membrane was washed 3× with TBS-T and developed using the 1-step NBT-BCIP substrate (Pierce). […] The immunoblot proteins were detected using ImageQuant RT-ECL (GE Life Sciences) and densitometric quantification was performed using IMAL software, which was developed at our institution. […]
# [4] = system: HDAC6-BDNF PIV association; experiment: ChIP: HDAC6 association with BDNF promoter IV
# Method: as §1, §2, §3
# [5] = system: HDAC4; experiment: HDAC4 nuclear translocation in SH-SY5Y cells (immunoblot); conditions: ApoE4+ASPD induced translocation, 24 h
# Method: as §1
# A PBS solution of 5×10^6 Human SH-SY5Y neuroblastoma cells was centrifuged and the resultant cell pellet was resuspended and washed twice with cold PBS. After the second wash, the cell pellet was resuspended in 500 μl of hypotonic buffer (20 mM Tris-Cl, pH 7.4, 10 mM NaCl, 3 mM MgCl2, and 1 mM PMSF) and incubated on ice for 15 min. Next, 25 μl of 10% NP-40 was added to the cell suspension and the sample was vortexed for 10 s. The homogenate was centrifuged for 10 min at 1000×g at 4° C. to obtain the cytoplasmic fraction (supernatant) and nuclear fraction (pellet). […] Protein concentration was measured using the Coomassie Plus (Bradford) Protein Assay kit (Pierce).
# Protein in samples of the supernetant and nuclear fractions was separated by SDSPAGE in a 4-20% gradient Tris-Glycine gel (Invitrogen). […] The immunoblot proteins were detected using ImageQuant RT-ECL (GE Life Sciences) and densitometric quantification was performed using IMAL software, which was developed at our institution. […]
# [6] = system: BDNF mRNA; experiment: BDNF mRNA expression in SH-SY5Y cells (qRT-PCR)
# Method: as §1
# (§4) qRT-PCR was performed and the results analyzed as described previously (Schmittgen et al., Analyzing real-time PCR data by the comparative C(T) method, Nat. Protoc., 3:1101-1108, 2008; Sen et al., 2012 supra). Total RNA (500 ng) was reverse transcribed using oligo(dT) and Superscript III (Invitrogen) at 50° C. for 1 h. The cDNA products were analyzed using a LightCycler 480 II (Roche) PCR machine and LightCycler 480 SYBR Green 1 master mix following the manufacturer's protocol. Primers for PKCε (forward primer: […], reverse primer: […], PKCα (forward-[…], reverse: […]), PKC (forward: […], reverse: CCGATG […]), GAPDH (forward: […], reverse: […]), and BDNF (forward: […], reverse: […]; Origene).
# [7] = system: BDNF-exon IV; experiment: BDNF-exon IV expression in SH-SY5Y cells (qRT-PCR)
# Method: as §1, §4
# BDNF promoter- and exon specific primers were used as described previously (Pruunsild et al., Dissecting the human BDNF locus: bidirectional transcription, complex splicing, and multiple promoters, Genomics, 90:397-406, 2007). BDNF-promotor I (PI) (forward: […], reverse: […]), BDNF-promotor II (PII) (forward: […], reverse: […]), BDNF-promotor III (PIII) (forward: […], reverse: […]), BDNF-promoter (IV) (PIV) (forward: […], reverse: […]), BDNF-promoter IX (PIX) (forward: […], reverse: […]) were from Invitrogen. […]
smiles,measurement,setting,value
"CCCCCC1CC1CC1CC1CCCCCCCC(=O)OC (stereo not shown) [DCPLA-ME, DCPLA methyl ester]",effect on ApoE4+Chol induced HDAC6-PIII association,[1],blocked the ApoE4+Chol induced increase
same,PKCε mRNA levels,[2],0.95±0.09 fold
same,reduction in nuclear HDAC6,[3],56±5.9%
same,effect on ApoE4+Chol induced HDAC6-PIV association,[4],blocked the ApoE4+Chol induced increase
same,reduction of nuclear import of HDAC4,[5],35±6.9%
same,BDNF expression,[6]; cells treated with ApoE4+Chol+DCPLA-ME,0.95±0.1
same,BDNF expression,[6]; cholesterol treated cells,1.91±0.21 fold
same,BDNF-exon IV expression,[7]; ApoE3+Chol+DCPLA-ME,1.98±0.13
same,BDNF-exon IV expression,[7]; ApoE4+Chol+DCPLA-ME,0.74±0.01
same,BDNF-exon IV expression,[7]; DCPLA-ME+Chol,1.85±0.27 fold
